# Measured values taken from patent US4933365A, “Phospholipase A2 inhibitors” (American Home Products Corporation, priority 1989, dated 1990).
# What was measured:
# [1] = test system: vascular cutaneous permeability induced by snake venom PLA2 (Naja mocambique mocambique PLA2); test: reduction of vascular cutaneous permeability induced by snake venom PLA2; format: in vivo, guinea pig (male Hartley); settings: for % Inhibition: standard drug
# [2] = test system: synthesis of the arachidonic acid cyclooxygenase oxidation product TxB2; test: inhibition of TxB2 synthesis (cyclooxygenase) by rat PMN; format: cell-based, rat (female Wistar); settings: A23187 stimulated rat PMN
# Protocol: Rat polymorphonuclear leukocytes (PMNs) are obtained from female Wistar rats (150-200 g) which receive an injection of 6% glycogen (10 ml i.p.). Rats are sacrificed 18-24 hours post injection by CO2 asphyxiation and the elicited cells are harvested by peritoneal lavage using physiological saline (0.9% NaCl). The exudate is centrifuged at 400×g for 10 minutes. The supernatant fluid is discarded and the cell pellet is resuspended to concentration of 2.0×10^7 cells/ml in HBSS containing Ca^++ and Mg^++ and 10 μM L-cysteine.
# To 1 ml aliquots of cell suspension, test drugs or vehicle are added, then preincubated at 37° C. for 10 minutes. A23187 (1 μM) and [^3 H]-AA (3.0 μCi/ml) are then added and the samples are further incubated for 10 minutes. The reaction is terminated by centrifugation and pelleting cells. Supernatants are then analyzed by HPLC analysis on a 15 cm ×4.6 mm ID Supelcosil LC-18 (Supelco)(3M) column, using a two solvent system at a flow rate of 1.4 ml total flow as follows:
# Injections: 150 μl of each supernatant is injected directly onto column and ^3 H arachidonic acid metabolites are monitored using an on-line radioactivity detector (Ramona, IN/US, Fairfield, N.J.).
# Co-chromatography with standard [^3 H] leukotriene B4 (LTB4) in medium of stimulated PMN exposed to drug is compared to that found in medium of stimulated cells exposed to no drug, generating percent inhibition.
# Results are expressed as percent inhibition at a given compound dose.
# In this assay, the procedure of Example 13 is carried out as described. However, in order to determine cyclooxygenase activity, the samples are co-chromatographed with authentic reference [^3 H]--TxB2.
# The results are calculated as in Example 13 and present below: […]
# carrageenan paw edema = test: rat carrageenan paw edema; format: in vivo, rat (male Sprague-Dawley); settings: po, 3 h, read-out: Oral ED50 (95% C.L.)
# Protocol: The compounds in the scope of the invention are further tested in the rat carrageenan paw edema to determine their ability to inhibit the acute inflammatory response.
# This assay is carried out as follows:
# […] male Sprague-Dawley rats, in groups of 6 animals are injected subcutaneously in the right paw with 0.1 ml of 1% carrageenan at zero time. Mercury plethysmographic readings (ml) of the paw made at zero time and 3 hours later. Test compounds are suspended or dissolved in 0.5% methylcellulose and given perorally 1 hour prior to carrageenan administration.
# The increase in paw volume (edema in ml.) produced by the carrageenan is measured. Paw edema is calculated (3 hour volume minus zero time volume), and percent inhibition of edema is determined. Unpaired Student's t-test is used to determine statistical significance.
# [3] = test system: oxazolone-induced contact hypersensitivity in the mouse ear; test: oxazolone-induced contact hypersensitivity in the mouse ear; format: in vivo, mouse (female Swiss Webster); settings: dosed at 1 mg/ear
# Protocol: The assay of this Example measures the ability of the compound in the scope of the invention to inhibit oxazolone-induced contact hypersensitiveity in the mouse ear.
# The assay is carried out as follows:
# Female, Swiss Webster mice (8 weeks old) are placed into groups of 6 and the abdominal area of each is shaved. The mice are sensitized to oxazolone (4-ethoxymethylene-2-phenyl-oxazol-5-one) by applying 100 μl of a 2% solution in 95% alcohol directly onto the shaved abdomen using an automatic pipette and rubbing the residual oxaxolone into the skin with a round wooden stick. Six days after sensitization each mouse is challenged by applying 20 μl if a 2% oxazolone solution in 95% alcohol to the right ear (10 μl of alcohol alone to the left ear. Compounds for topical applications are prepared in acetone and administered to the right ear 30 min after challenge or 30 min prior to and 5 h after challenge; acetone (vehicle) is applied to the left ear. Compounds for oral administration are suspended in 0.5 ml of 0.5% methyl cellulose and given ten min prior to challenge. Ear thickness of both ears is measured in mm×10^- 2 at 24 and 48 h after challenge using an Oditest caliper. Edema is calculated by subtracting the left ear thickness from the right ear thickness. Drug effects are determined by calculating the percentage change from control for each time period.
structure (smiles),measurement,setting,value
"COC(=O)C1(C(F)=CCCCOc2ccc(Cl)cc2)CO1 (stereo not drawn) [6 (fluoro-vinyl compound), 2-[5-(4-Chlorophenoxy)-1-fluoro-1-pentenyl]-2-oxiranecarboxylic acid methyl ester]","% Inhibition, iv at 100 mg/kg",[1],32%
CN(C)CCC(c1ccc(Cl)cc1)c1ccccn1 (stereo not drawn) [Chlorpheniramine],% Inhibition,[1]; 2 mg/kg p.o.,45.0%
"COC(=O)C1(C(=O)CCCCOc2ccc(Cl)cc2)CO1 (stereo not drawn) [Example 6A, 2-[5-(4-Chlorophenoxy)-1-oxopentyl]-2-oxiranecarboxylic acid methyl ester]",inhibition at 10 µM,[2],30%
COc1ccc2c(c1)c(CC(=O)O)c(C)n2C(=O)c1ccc(Cl)cc1 [Indomethacin],% Inhibition,[1]; 50 mg/kg p.o.,15.0%
same,ED50,carrageenan paw edema,3.7 mg/kg
"CCOC(=O)C1(CCCCCc2ccc(Cl)cc2)CO1 (stereo not drawn) [Example 10, 2-[5-(4-Chlorophenyl)pentyl]-2-oxiranecarboxylic acid ethyl ester]","% Inhibition, iv at 100 mg/kg",[1],24.1%
same,inhibition at 10 µM,[2],4%
CC(=O)Oc1ccccc1C(=O)O [Aspirin],ED50,carrageenan paw edema,145 mg/kg
"COC(=O)C1(C(=O)CCCCc2ccccc2)CO1 (stereo not drawn) [Example 9, 2-(5-Phenyl-1-oxopentyl)-2-oxiranecarboxylic acid methyl ester]",% Inhibition,[3],22.0%
same,inhibition at 10 µM,[2],1%
NC1=NN(c2cccc(C(F)(F)F)c2)CC1 [BW 755c],% Inhibition,[1]; 200 mg/kg p.o.,65.3%
C[C@@H]1C[C@H]2[C@@H]3CCC4=CC(=O)C=C[C@]4(C)[C@@]3(F)[C@@H](O)C[C@]2(C)[C@@]1(O)C(=O)CO [Dexamethasone],% Inhibition,[1]; 10 mg/kg p.o.,49.0%
